Measured values taken from article PMC11462456 (Chemical Science, 2024).

How the values were obtained:
[1] = Parallel artificial membrane permeability assay (PAMPA); format: in vitro ADME; conditions: 10 uM, pH 7.4, four hours
Method: 4.9 Study of membrane permeability of single-ligand and dual-ligand PROTACs Parallel artificial membrane permeability assay (PAMPA) is a non-cell based assay designed to predict passive, transcellular permeability of a test compound through a PVDF membrane filter pretreated with lipid. At a given pH a log Pe (log of effective permeability) can be determined by a UV spectrophotometer. […]
is carried out in the company of Eurofins Panlabs, 6 Research Park Dr. St. Charles, MO 63304, U.S.A. The results are attached as an excel file.
Sample preparation The test compound is prepared from a 10 mM DMSO stock solution and diluted to a single final concentration of 10 uM in donor buffer. The donor solution is placed in contact with the acceptor buffer at a single pH = 7.4 with the membrane in between and the sandwich is incubated for four hours at ambient temperature.
Reference compounds Ketoprofen, propranolol and furosemide. The reference compounds yield log Pe (10-6 cm/s) values that cover the typical range of the assay from high (Propranolol), mid (Ketoprofen) to low (Furosemide) permeability.
Analytical method UV/Vis spectrophotometer
The UV absorption is measured from 250 to 500 nm for both donor and acceptor plate.
Adjustments to the method may be made as necessary to improve detection or UV spectrum.
Data analysis The amount of compound UV absorbance is determined in the donor plate prior to starting the experiment for each compound. The UV absorbance was measured from the (1 picture or pasted object on this page, not shown here) […]
donor and acceptor plate after a four hour incubation time. The log Pe was calculated using […]
4.10 Statistical Analysis.
Data analyses were performed using GraphPad Prism 9 software. The results are presented as the mean ± standard deviation (SD) or standard error of mean (SEM). All statistical analyses were evaluated with one-way analysis of variance (ANOVAs), or unpaired Student’s t-test. The difference was considered statistically significant when P < 0.05.

A549 xenograft = A549 xenograft mouse model, tumor growth; format: in vivo; conditions: i.p.
Method: 4.7 Therapeutic anti-tumor evaluation
Animal experiments were carried out in accordance with the regulatory guidelines of the Ethics Committee of the Ghent University Hospital. 30 female Swiss Nude Immunodeficient mice (Crl:NU(Ico)-Foxn1nu) of 5 weeks-6 weeks old (Charles River) were subcutaneously injected with […] A549 (1:1 serum free DMEM medium: Matrigel (Corning)). 10 days post inoculation ,mice were randomized into five groups (6 mice/group) with equal average tumor volume and treatment was started: (1) the control group: Vehicle(20% PEG400 and 5% […]
2J2V group (0.1 mg/kg), (5) the 2J2V group(0.5 mg/kg).Mice were treated on Day 0, Day 2, Day 4, Day 11, Day 18 by intraperitoneal injection. Tumor growth was monitored every 3 days by caliper, and the tumor volume was calculated as 1/2 × length × width2. Body weight was monitored every 3 days by weighing scale. […]
The reduced […]
proteins were alkylated with 40 mM iodoacetamide (IAA) in the dark for 30 minutes. Then samples were acidified with 1.2% aqueous phosphoric acid and mixed with 6× volumes of 90% methanol, 100 mM TEAB, pH 7.1 (S-Trap binding buffer). The samples were loaded onto the (1 picture or pasted object on this page, not shown here)

Structure (SMILES) | membrane permeability [1] | tumor growth (A549 xenograft; higher dose of 0.5 mg kg−1, Swiss nude mice) | anti-tumor activity (A549 xenograft; 0.5 and 0.1 mg kg−1, Swiss nude mice)
Cc1sc2c(c1C)C(c1ccc(Cl)cc1)=N[C@@H](CC(=O)NCCOCCOCCNC(=O)C[C@H](NC(=O)COCCOCCOCCOCCn1cc(CCC(=O)N[C@@H](CC(=O)NCCOCCOCCNc3cccc4c3C(=O)N(C3CCC(=O)NC3=O)C4=O)C(=O)NCCOCCOCCNc3cccc4c3C(=O)N(C3CCC(=O)NC3=O)C4=O)nn1)C(=O)NCCOCCOCCNC(=O)C[C@@H]1N=C(c3ccc(Cl)cc3)c3c(sc(C)c3C)-n3c(C)nnc31)c1nnc(C)n1-2 (some centres unmarked) [2J2P] | high membrane permeability |  | 
Cc1ncsc1-c1ccc(C(C)NC(=O)C2CC(O)CN2C(=O)C(NC(=O)COCCOCCNC(=O)CC(NC(=O)CCc2cn(CCOCCOCCOCCOCC(=O)NC(CC(=O)NCCOCCOCCNC(=O)CC3N=C(c4ccc(Cl)cc4)c4c(sc(C)c4C)-n4c(C)nnc43)C(=O)NCCOCCOCCNC(=O)CC3N=C(c4ccc(Cl)cc4)c4c(sc(C)c4C)-n4c(C)nnc43)nn2)C(=O)NCCOCCOCC(=O)NC(C(=O)N2CC(O)CC2C(=O)NC(C)c2ccc(-c3scnc3C)cc2)C(C)(C)C)C(C)(C)C)cc1 (centres unmarked) [2J2V] | very limited membrane permeability | potent reduction in tumor growth | 
Cc1ncsc1-c1ccc(CNC(=O)C2CC(O)CN2C(=O)C(NC(=O)COCCOCCOCCNC(=O)CC2N=C(c3ccc(Cl)cc3)c3c(sc(C)c3C)-n3c(C)nnc32)C(C)(C)C)cc1 (centres unmarked) [MZ1, reference compound] | very limited membrane permeability |  | did not exhibit significant anti-tumor activity
